pIC50: −log10 of the molar value.
Molecular target: T1, purified human HDAC6 (Homo sapiens, UniProt Q9UBN7)
T1 construct: purchased BPS Bioscience 5006
T1 sequence (Q9UBN7 1-1215): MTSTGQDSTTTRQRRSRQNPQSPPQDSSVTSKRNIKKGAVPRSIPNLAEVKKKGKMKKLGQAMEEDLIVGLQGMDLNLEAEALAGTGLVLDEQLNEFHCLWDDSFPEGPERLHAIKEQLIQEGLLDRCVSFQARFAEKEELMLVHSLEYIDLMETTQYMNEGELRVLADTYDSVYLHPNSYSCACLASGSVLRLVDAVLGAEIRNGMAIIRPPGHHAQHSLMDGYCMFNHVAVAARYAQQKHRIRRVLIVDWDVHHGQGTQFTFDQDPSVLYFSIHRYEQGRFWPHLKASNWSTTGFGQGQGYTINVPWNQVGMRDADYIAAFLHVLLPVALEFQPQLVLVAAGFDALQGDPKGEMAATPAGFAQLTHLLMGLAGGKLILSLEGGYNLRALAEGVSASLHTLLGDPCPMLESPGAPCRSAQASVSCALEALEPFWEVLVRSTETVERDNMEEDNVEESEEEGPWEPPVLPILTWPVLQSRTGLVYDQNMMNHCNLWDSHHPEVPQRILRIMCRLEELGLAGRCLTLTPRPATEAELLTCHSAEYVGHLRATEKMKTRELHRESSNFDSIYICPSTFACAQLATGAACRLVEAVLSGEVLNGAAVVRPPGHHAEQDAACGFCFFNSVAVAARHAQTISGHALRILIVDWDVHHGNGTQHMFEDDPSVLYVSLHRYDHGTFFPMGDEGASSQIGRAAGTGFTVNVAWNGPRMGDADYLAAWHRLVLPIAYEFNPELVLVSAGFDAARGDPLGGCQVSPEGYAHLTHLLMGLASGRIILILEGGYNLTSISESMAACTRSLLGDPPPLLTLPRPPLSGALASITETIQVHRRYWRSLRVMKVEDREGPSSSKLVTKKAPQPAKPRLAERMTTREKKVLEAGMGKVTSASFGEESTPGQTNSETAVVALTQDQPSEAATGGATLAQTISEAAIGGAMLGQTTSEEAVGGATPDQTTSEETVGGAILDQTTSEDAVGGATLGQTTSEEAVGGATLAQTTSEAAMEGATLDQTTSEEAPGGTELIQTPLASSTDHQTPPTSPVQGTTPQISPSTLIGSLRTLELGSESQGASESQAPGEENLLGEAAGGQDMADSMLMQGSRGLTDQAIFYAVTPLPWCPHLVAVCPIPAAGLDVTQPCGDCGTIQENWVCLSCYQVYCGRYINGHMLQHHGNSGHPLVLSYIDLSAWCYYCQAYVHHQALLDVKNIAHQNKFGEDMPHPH
Assay: HDAC6 Enzyme Assay
Assay type: biochemical
Details: enzyme inhibition, substrate Ac-Arg-Gly-Lys(Ac)-AMC, 1 hour at 30° C.
Description: To measure the inhibition of HDAC6 activity, purified human HDAC6 (BPS Bioscience; Cat. No. 5006) is incubated with substrate Ac-Arg-Gly-Lys(Ac)-AMC peptide (Bachem Biosciences; Cat. No. I-1925) for 1 hour at 30° C. in the presence of test compounds or vehicle DMSO control. The reaction is stopped with the HDAC inhibitor trichostatin A (Sigma; Cat. No. T8552) and the amount of Arg-Gly-Lys-AMC generated is quantitated by digestion with trypsin (Sigma; Cat. No. T1426) and subsequent measurement of the amount of AMC released using a fluorescent plate reader (Pherastar; BMG Technologies) set at Ex 340 nm and Em 460 nm. Concentration response curves are generated by calculating the fluorescence increase in test compound-treated samples relative to DMSO-treated controls, and enzyme inhibition (IC50) values are determined from those curves.

Structure (SMILES) | pIC50
Cc1onc(-c2ccccc2)c1C(=O)N1CCc2cc(C(=O)NO)sc2C1 [Compound 107, N-hydroxy-6-[(5-methyl-3-phenylisoxazol-4-yl)carbonyl]-4,5,6,7-tetrahydrothieno[2,3-c]pyridine-2-carboxamide] | > 7.30
COc1ccc(CN2CCc3cc(C(=O)NO)sc3C2)cc1 [Compound 111, N-hydroxy-6-(4-methoxybenzyl)-4,5,6,7-tetrahydrothieno[2,3-c]pyridine-2-carboxamide] | < 6.00
Cn1cccc1C(=O)N1CCc2cc(C(=O)NO)sc2C1 [Compound 116, N-hydroxy-6-[(1-methyl-1H-pyrrol-2-yl)carbonyl]-4,5,6,7-tetrahydrothieno[2,3-c]pyridine-2-carboxamide] | > 7.30
Cc1cc(C)n(CC(=O)N2CCc3cc(C(=O)NO)sc3C2)n1 [Compound 125, 6-(2-(3,5-dimethyl-1H-pyrazol-1-yl)acetyl)-N-hydroxy-4,5,6,7-tetrahydrothieno[2,3-c]pyridine-2-carboxamide] | 7.00 to 7.30
O=C(NO)c1cc2c(s1)CN(C(=O)c1cnn(-c3ccccc3)c1)CC2 [Compound 127, N-hydroxy-6-[(1-phenyl-1H-pyrazol-4-yl)carbonyl]-4,5,6,7-tetrahydrothieno[2,3-c]pyridine-2-carboxamide] | > 7.30
CC(=O)Nc1cc(NC(C)=O)cc(C(=O)N2CCc3cc(C(=O)NO)sc3C2)c1 [Compound 131, 6-[3,5-bis(acetylamino)benzoyl]-N-hydroxy-4,5,6,7-tetrahydrothieno[2,3-c]pyridine-2-carboxamide] | > 7.30
Cc1onc(-c2ccccc2)c1NC(=O)N1CCc2cc(C(=O)NO)sc2C1 [Compound 132, N^2-hydroxy-N^6-(5-methyl-3-phenylisoxazol-4-yl)-4,7-dihydrothieno[2,3-c]pyridine-2,6(5H)-dicarboxamide] | > 7.30
O=C(NO)c1cc2c(s1)CN(C(=O)c1cccc(-n3cccn3)c1)CC2 [Compound 133, 6-(3-(1H-pyrazol-1-yl)benzoyl)-N-hydroxy-4,5,6,7-tetrahydrothieno[2,3-c]pyridine-2-carboxamide] | > 7.30
CC(C)c1ccc(NC(=O)N2CCc3cc(C(=O)NO)sc3C2)cc1 [Compound 139, N^2-hydroxy-N^6-(4-isopropylphenyl)-4,7-dihydrothieno[2,3-c]pyridine-2,6(5H)-dicarboxamide] | > 7.30
O=C(NO)c1cc2c(s1)CN(C(=O)c1cc(F)cc(F)c1)CC2 [Compound 140, 6-(3,5-difluorobenzoyl)-N-hydroxy-4,5,6,7-tetrahydrothieno[2,3-c]pyridine-2-carboxamide] | > 7.30
O=C(NO)c1cc2c(s1)CN(C(=O)c1cscn1)CC2 [Compound 146, N-hydroxy-6-(1,3-thiazol-4-ylcarbonyl)-4,5,6,7-tetrahydrothieno[2,3-c]pyridine-2-carboxamide] | > 7.30
CCn1nc(C)cc1C(=O)N1CCc2cc(C(=O)NO)sc2C1 [Compound 149, 6-[(1-ethyl-3-methyl-1H-pyrazol-5-yl)carbonyl]-N-hydroxy-4,5,6,7-tetrahydrothieno[2,3-c]pyridine-2-carboxamide] | 7.00 to 7.30
Cc1nc(-c2ccccc2)ncc1C(=O)N1CCc2cc(C(=O)NO)sc2C1 [Compound 152, N-hydroxy-6-[(4-methyl-2-phenylpyrimidin-5-yl)carbonyl]-4,5,6,7-tetrahydrothieno[2,3-c]pyridine-2-carboxamide] | > 7.30
O=C(NO)c1cc2c(s1)CN(C(=O)c1c(F)c(F)cc(F)c1F)CC2 [Compound 156, N-hydroxy-6-(2,3,5,6-tetrafluorobenzoyl)-4,5,6,7-tetrahydrothieno[2,3-c]pyridine-2-carboxamide] | > 7.30
Nc1[nH]ncc1C(=O)N1CCc2cc(C(=O)NO)sc2C1 [Compound 159, 6-[(5-amino-1H-pyrazol-4-yl)carbonyl]-N-hydroxy-4,5,6,7-tetrahydrothieno[2,3-c]pyridine-2-carboxamide] | > 7.30
O=C(NO)c1cc2c(s1)CN(C(=O)Nc1ccc(I)cc1)CC2 [Compound 163, N^2-hydroxy-N^6-(4-iodophenyl)-4,7-dihydrothieno[2,3-c]pyridine-2,6(5H)-dicarboxamide] | > 7.30
CCCCc1ccc(NC(=O)N2CCc3cc(C(=O)NO)sc3C2)cc1 [Compound 169, N^6-(4-butylphenyl)-N^2-hydroxy-4,7-dihydrothieno[2,3-c]pyridine-2,6(5H)-dicarboxamide] | > 7.30

Second part, the compound after the results:

pIC50 | Structure (SMILES)
> 7.30 | O=C(NO)c1cc2c(s1)CN(C(=O)c1ccc(C(F)(F)F)cc1)CC2 [Compound 171, N-hydroxy-6-(4-(trifluoromethyl)benzoyl)-4,5,6,7-tetrahydrothieno[2,3-c]pyridine-2-carboxamide]
> 7.30 | Cc1cc(C)c(NC(=O)N2CCc3cc(C(=O)NO)sc3C2)c(C)c1 [Compound 176, N^2-hydroxy-N^6-mesityl-4,7-dihydrothieno[2,3-c]pyridine-2,6(5H)-dicarboxamide]
> 7.30 | Cc1noc(C)c1C(=O)N1CCc2cc(C(=O)NO)sc2C1 [Compound 177, 6-[(3,5-dimethylisoxazol-4-yl)carbonyl]-N-hydroxy-4,5,6,7-tetrahydrothieno[2,3-c]pyridine-2-carboxamide]
7.00 to 7.30 | Cc1cc(C(=O)N2CCc3cc(C(=O)NO)sc3C2)c(C)o1 [Compound 178, 6-(2,5-dimethyl-3-furoyl)-N-hydroxy-4,5,6,7-tetrahydrothieno[2,3-c]pyridine-2-carboxamide]
> 7.30 | O=C(NO)c1cc2c(s1)CN(C(=O)c1ccc3ccccc3n1)CC2 [Compound 179, N-hydroxy-6-(quinolin-2-ylcarbonyl)-4,5,6,7-tetrahydrothieno[2,3-c]pyridine-2-carboxamide]
7.00 to 7.30 | O=C(NO)c1cc2c(s1)CN(C(=O)c1ccc(F)cc1)CC2 [Compound 182, 6-(4-fluorobenzoyl)-N-hydroxy-4,5,6,7-tetrahydrothieno[2,3-c]pyridine-2-carboxamide]
> 7.30 | Cc1onc(-c2ccc(F)cc2)c1C(=O)N1CCc2cc(C(=O)NO)sc2C1 [Compound 184, 6-{[3-(4-fluorophenyl)-5-methylisoxazol-4-yl]carbonyl}-N-hydroxy-4,5,6,7-tetrahydrothieno[2,3-c]pyridine-2-carboxamide]
> 7.30 | CCc1cc(C(=O)N2CCc3cc(C(=O)NO)sc3C2)n(C)n1 [Compound 186, 6-[(3-ethyl-1-methyl-1H-pyrazol-5-yl)carbonyl]-N-hydroxy-4,5,6,7-tetrahydrothieno[2,3-c]pyridine-2-carboxamide]
> 7.30 | Cc1c(C(=O)N2CCc3cc(C(=O)NO)sc3C2)cnn1-c1ccccc1 [Compound 187, N-hydroxy-6-[(5-methyl-1-phenyl-1H-pyrazol-4-yl)carbonyl]-4,5,6,7-tetrahydrothieno[2,3-c]pyridine-2-carboxamide]
> 7.30 | CC(C)(C)c1ccc(CC(=O)N2CCc3cc(C(=O)NO)sc3C2)cc1 [Compound 188, 6-[(4-tert-butylphenyl)acetyl]-N-hydroxy-4,5,6,7-tetrahydrothieno[2,3-c]pyridine-2-carboxamide]
< 6.00 | CC(C)(C)c1ccc(C(=O)N2Cc3cc(C(=O)NO)sc3C(C)(C)C2)cc1 [Compound 190, 5-(4-tert-butylbenzoyl)-N-hydroxy-7,7-dimethyl-4,5,6,7-tetrahydrothieno[3,2-c]pyridine-2-carboxamide]
< 6.00 | CC1(C)CN(C(=O)c2sc3ccccc3c2Cl)Cc2cc(C(=O)NO)sc21 [Compound 192, 5-[(3-chloro-1-benzothien-2-yl)carbonyl]-N-hydroxy-7,7-dimethyl-4,5,6,7-tetrahydrothieno[3,2-c]pyridine-2-carboxamide]
